Laboratory results as given in patent publication US12421228B2 (Mirati Therapeutics, Inc., priority 2019, dated 2025).

What was measured:
[1] = target: purified human, His-tagged PRC2 complex (Homo sapiens (Human), UniProt O75530); assay: Hot Spot HMT assay, inhibition of PRC2 enzymatic activity; type: biochemical; conditions: 10 nM PRC2 complex, 0.05 mg/ml core histone H3, 1 μM 3H-SAM, 1 hr at 30° C.; read-out: IC50, Inhibition of PRC2-mediated Enzymatic Activity
Procedure, shortened: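 Ten-point, three-fold dilution series from 1.0 μM. 10 nM PRC2 with 0.05 mg/ml core histone H3 in pH 8 Tris buffer was pre-incubated 20 min at 30 °C, then reacted with 1 μM [3H]-SAM for 1 hr at 30 °C. Tritiated H3 was captured by filter binding and scintillation-counted; IC50 was taken from the dose-response curve.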

[2] = tested on: PRC2-mediated histone H3 methylation in Pfeiffer cells (EZH2 A677G); assay: Tri-Methyl Histone H3 (Lys 27) sandwich ELISA in Pfeiffer cells; type: cell-based; conditions: Homo sapiens, 96 hours incubation, H3K27me3 ELISA, read-out: IC50 (nM), Inhibition of EZH2-mediated Histone H3 Trimethylation
Procedure, shortened: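 Pfeiffer DLBCL cells (EZH2 A677G) exposed to 3-fold serial compound dilutions for 96 h at 37 °C. Acid-extracted (0.4 M HCl), neutralized histones then assayed by sandwich ELISA for H3K27me3 with HRP/TMB readout at 450 nm; potency reported in bins (A ≤100 nM, B >100–≤500 nM, C >500 nM).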

[3] = tested on: Karpas 422 cells (EZH2 Y641N); assay: Karpas 422 cell viability (Cell Titre Glo); type: cell-based; conditions: Homo sapiens, CTG viability, Day 4, Day 7 or Day 11 (time point not given), read-out: IC50 (nM), Inhibiting Proliferation of Cells Expressing an Activating Mutant Form of EZH2
Procedure, shortened: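 Karpas 422 cells (EZH2 Y641N) in RPMI with 20% FBS, 1000 cells/well, exposed to compound from 10 μM in 3-fold dilutions down to 1.5 nM at 37° C. Viability by CellTiter-Glo at Day 4, 7 or 11; Day 11 plates re-fed with fresh medium and compound on Day 7. IC50 per time point.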

Sequence of purified human, His-tagged PRC2 complex (Q15910 whole entry): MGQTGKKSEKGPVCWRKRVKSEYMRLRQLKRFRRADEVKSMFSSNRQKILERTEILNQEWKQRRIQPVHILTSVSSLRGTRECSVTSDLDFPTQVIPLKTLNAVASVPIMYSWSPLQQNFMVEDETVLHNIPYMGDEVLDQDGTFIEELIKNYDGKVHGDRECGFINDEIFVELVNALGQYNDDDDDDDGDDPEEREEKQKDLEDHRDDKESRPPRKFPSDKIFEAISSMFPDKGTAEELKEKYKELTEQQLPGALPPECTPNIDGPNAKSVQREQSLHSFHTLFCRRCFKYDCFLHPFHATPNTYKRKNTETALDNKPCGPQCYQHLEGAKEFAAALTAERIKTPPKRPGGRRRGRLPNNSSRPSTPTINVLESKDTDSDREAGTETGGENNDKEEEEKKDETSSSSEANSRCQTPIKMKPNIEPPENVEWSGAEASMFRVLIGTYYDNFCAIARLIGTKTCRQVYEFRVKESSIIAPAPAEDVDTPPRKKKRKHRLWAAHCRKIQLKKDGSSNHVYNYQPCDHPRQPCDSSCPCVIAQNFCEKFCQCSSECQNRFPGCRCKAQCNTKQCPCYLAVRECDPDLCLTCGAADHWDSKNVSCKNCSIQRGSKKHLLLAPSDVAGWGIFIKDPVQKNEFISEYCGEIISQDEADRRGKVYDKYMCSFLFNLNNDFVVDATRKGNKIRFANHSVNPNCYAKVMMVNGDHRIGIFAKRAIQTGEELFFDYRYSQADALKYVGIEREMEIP
Sequence of purified human, His-tagged PRC2 complex (O75530 whole entry): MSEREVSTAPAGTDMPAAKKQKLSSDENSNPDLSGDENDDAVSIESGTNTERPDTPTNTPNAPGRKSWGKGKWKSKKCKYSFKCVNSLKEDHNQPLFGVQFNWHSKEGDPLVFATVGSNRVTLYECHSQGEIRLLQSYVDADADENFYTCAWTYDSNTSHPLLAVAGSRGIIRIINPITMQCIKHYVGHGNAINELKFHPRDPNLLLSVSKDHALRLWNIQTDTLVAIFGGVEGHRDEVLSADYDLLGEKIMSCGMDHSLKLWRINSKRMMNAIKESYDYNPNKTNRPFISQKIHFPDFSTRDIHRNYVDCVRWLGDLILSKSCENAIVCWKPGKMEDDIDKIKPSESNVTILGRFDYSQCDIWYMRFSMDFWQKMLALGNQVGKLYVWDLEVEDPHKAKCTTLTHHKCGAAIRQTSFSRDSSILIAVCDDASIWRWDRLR
Sequence of purified human, His-tagged PRC2 complex (Q15022 whole entry partner): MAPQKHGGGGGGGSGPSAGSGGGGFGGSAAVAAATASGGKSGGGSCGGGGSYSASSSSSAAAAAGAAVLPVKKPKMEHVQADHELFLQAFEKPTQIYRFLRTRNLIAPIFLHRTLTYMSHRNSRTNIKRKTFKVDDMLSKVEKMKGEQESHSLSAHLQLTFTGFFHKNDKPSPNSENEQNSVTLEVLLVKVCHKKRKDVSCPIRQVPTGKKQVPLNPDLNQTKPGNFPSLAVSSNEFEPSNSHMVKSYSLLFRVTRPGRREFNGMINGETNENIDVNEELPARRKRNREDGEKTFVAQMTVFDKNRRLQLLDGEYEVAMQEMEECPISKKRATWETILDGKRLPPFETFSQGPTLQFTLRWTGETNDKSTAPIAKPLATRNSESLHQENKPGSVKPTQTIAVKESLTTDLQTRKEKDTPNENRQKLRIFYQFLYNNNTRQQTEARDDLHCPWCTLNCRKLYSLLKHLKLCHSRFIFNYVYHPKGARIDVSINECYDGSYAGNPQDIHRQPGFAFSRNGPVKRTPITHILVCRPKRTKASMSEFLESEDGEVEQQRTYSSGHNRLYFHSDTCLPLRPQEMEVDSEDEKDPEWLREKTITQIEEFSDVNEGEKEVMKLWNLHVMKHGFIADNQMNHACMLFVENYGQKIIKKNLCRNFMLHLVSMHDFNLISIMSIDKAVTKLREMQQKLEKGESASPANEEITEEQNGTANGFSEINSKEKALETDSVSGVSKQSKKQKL
Sequence of purified human, His-tagged PRC2 complex (Q6ZN18 whole entry partner): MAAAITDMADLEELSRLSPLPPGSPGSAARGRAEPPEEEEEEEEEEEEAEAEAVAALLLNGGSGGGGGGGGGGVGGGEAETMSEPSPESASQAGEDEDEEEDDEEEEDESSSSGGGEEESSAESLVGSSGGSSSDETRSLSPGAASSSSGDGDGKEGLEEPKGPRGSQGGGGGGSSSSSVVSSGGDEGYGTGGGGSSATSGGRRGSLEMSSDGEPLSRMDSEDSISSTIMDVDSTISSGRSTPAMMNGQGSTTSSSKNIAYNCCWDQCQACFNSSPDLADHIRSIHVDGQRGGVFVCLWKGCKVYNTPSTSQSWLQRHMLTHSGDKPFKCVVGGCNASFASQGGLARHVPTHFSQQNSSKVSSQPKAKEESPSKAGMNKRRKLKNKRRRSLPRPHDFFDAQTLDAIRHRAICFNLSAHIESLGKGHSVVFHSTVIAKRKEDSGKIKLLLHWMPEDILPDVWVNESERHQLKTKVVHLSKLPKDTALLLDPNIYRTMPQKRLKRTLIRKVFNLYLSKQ
Sequence of purified human, His-tagged PRC2 complex (Q09028 whole entry partner): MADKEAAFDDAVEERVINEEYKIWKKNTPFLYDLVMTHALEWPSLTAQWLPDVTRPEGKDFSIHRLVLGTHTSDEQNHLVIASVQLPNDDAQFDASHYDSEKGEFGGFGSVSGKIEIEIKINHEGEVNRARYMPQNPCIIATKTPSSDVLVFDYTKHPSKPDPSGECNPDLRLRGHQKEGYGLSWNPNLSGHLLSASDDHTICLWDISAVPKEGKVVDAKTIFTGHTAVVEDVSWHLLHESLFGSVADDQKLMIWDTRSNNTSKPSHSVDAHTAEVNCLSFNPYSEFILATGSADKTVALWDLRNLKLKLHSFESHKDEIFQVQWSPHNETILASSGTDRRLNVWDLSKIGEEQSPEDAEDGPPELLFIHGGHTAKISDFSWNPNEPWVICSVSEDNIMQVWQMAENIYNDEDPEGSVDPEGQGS

IC50 [1] | IC50 [2] | IC50 [3] | SMILES
> 0.25 µM | 100 to 500 nM | ≤ 250 nM | Cc1ncccc1-c1cnc(NCc2c(F)ccc3c2CCO3)c2c[nH]c(=O)cc12 [Example 36]
0.1 to 0.25 µM | > 500 nM | > 500 nM | COc1cc2c(-c3cc(C)nn3C)cnc(NCc3c(F)ccc4c3CCO4)c2cn1 [Example 34, 4-(1,3-dimethyl-1H-pyrazol-5-yl)-N-((5-fluoro-2,3-dihydrobenzofuran-4-yl)methyl)-6-methoxy-2,7-naphthyridin-1-amine]
0.1 to 0.25 µM | > 500 nM | > 500 nM | Cn1nc(C#N)cc1-c1cnc(NCc2c(F)ccc3c2CCO3)c2cnccc12 [Example 33, 5-[1-[(5-fluoro-2,3-dihydrobenzofuran-4-yl)methylamino]-2,7-naphthyridin-4-yl]-1-methyl-pyrazole-3-carbonitrile]
> 0.25 µM | > 500 nM | > 500 nM | Cc1cc(CN(C)C)ccc1-c1cnc(NCc2c(F)ccc3c2CCO3)c2cnccc12 [Example 30]
> 0.25 µM | 100 to 500 nM | ≤ 250 nM | Cc1cc(-c2cnc(NCc3c(F)ccc4c3CCO4)c3ccc(=O)[nH]c23)n(C)n1 [Example 53]
